Test results as given in patent US4479951A, “1.4;3.6-Dianhydrohexitol nitrates substituted by purine bases, processes for their preparation and pharmaceutical compositions” (Dr. Willmar Schwabe GmbH & Co., priority 1980, dated 1984).

System: mongrel dogs
Assay: circulatory-pharmacological effectiveness on the narcotised dog, intravenous administration
Format: in vivo

## Nc1ncnc2c1ncn2[C@H]1CO[C@H]2[C@@H]1OC[C@@H]2O[N+](=O)[O-] [1c/2c, 5-(9-Adenyl)-5-desoxy-1.4;3.6-dianhydro-L-iditol 2-nitrate]
120 min after i.v. 1 mg/kg
  APdiast: diastolic aorta pressure: 93.7 mm.Hg
  APsyst: systolic aorta pressure: 143.4 mm.Hg
  BFFem: blood flow in the A. femoralis, referred to 20 kg. body weight: 58.6 mL/min
  HF: heart frequency: 98.7 min⁻¹
  HLL: heart capacity left, referred to 20 kg. body weight: 0.89 W
  HLR: heart capacity right, referred to 20 kg. body weight: 98.7 mW
  HZV: heart minute volume, referred to 20 kg. body weight: 3.85 L/min
  LVEDP: end diastolic pressure in the left ventricle: 6.37 mm.Hg
  PAP: average pressure in the A. pulmonalis: 15.1 ±2.3 mm.Hg
  PRA: pressure in the right atrium: 3.94 mm.Hg
  SV: beat volume, referred to 20 kg. body weight: 40.0 mL
  WAP: pulmonalis resistance, referred to 20 kg. body weight: 0.30 U
  WFem: femoralis resistance, referred to 20 kg. body weight: 0.25 KU
  WTP: total peripheral resistance, referred to 20 kg. body weight: 3.72 U
  dp/dt: rate of pressure increase in the left ventricle: 2043.7 mm.Hg/sec.
150 min after i.v. 1 mg/kg
  APdiast: diastolic aorta pressure: 94.7 mm.Hg
  APsyst: systolic aorta pressure: 147.2 mm.Hg
  BFFem: blood flow in the A. femoralis, referred to 20 kg. body weight: 58.2 mL/min
  HF: heart frequency: 97.5 min⁻¹
  HLL: heart capacity left, referred to 20 kg. body weight: 0.91 W
  HLR: heart capacity right, referred to 20 kg. body weight: 98.0 mW
  HZV: heart minute volume, referred to 20 kg. body weight: 3.89 L/min
  LVEDP: end diastolic pressure in the left ventricle: 6.97 mm.Hg
  PAP: average pressure in the A. pulmonalis: 15.1 ±1.5 mm.Hg
  PRA: pressure in the right atrium: 4.03 mm.Hg
  SV: beat volume, referred to 20 kg. body weight: 41.0 mL
  WAP: pulmonalis resistance, referred to 20 kg. body weight: 0.27 U
  WFem: femoralis resistance, referred to 20 kg. body weight: 0.26 KU
  WTP: total peripheral resistance, referred to 20 kg. body weight: 3.73 U
  dp/dt: rate of pressure increase in the left ventricle: 1950.0 mm.Hg/sec.
180 min after i.v. 1 mg/kg
  APdiast: diastolic aorta pressure: 91.9 mm.Hg
  APsyst: systolic aorta pressure: 143.4 mm.Hg
  BFFem: blood flow in the A. femoralis, referred to 20 kg. body weight: 59.4 mL/min
  HF: heart frequency: 95.5 min⁻¹
  HLL: heart capacity left, referred to 20 kg. body weight: 0.91 W
  HLR: heart capacity right, referred to 20 kg. body weight: 98.5 mW
  HZV: heart minute volume, referred to 20 kg. body weight: 4.03 L/min
  LVEDP: end diastolic pressure in the left ventricle: 7.69 mm.Hg
  PAP: average pressure in the A. pulmonalis: 14.9 ±1.3 mm.Hg
  PRA: pressure in the right atrium: 4.12 mm.Hg
  SV: beat volume, referred to 20 kg. body weight: 42.6 mL
  WAP: pulmonalis resistance, referred to 20 kg. body weight: 0.24 U
  WFem: femoralis resistance, referred to 20 kg. body weight: 0.24 KU
  WTP: total peripheral resistance, referred to 20 kg. body weight: 3.51 U
  dp/dt: rate of pressure increase in the left ventricle: 1593.7 mm.Hg/sec.
Before i.v. 1 mg/kg (v)
  APdiast: diastolic aorta pressure: 88.1 mm.Hg
  APsyst: systolic aorta pressure: 150.9 mm.Hg
  BFFem: blood flow in the A. femoralis, referred to 20 kg. body weight: 53.4 mL/min
  HF: heart frequency: 97.5 min⁻¹
  HLL: heart capacity left, referred to 20 kg. body weight: 0.83 W
  HLR: heart capacity right, referred to 20 kg. body weight: 96.0 mW
  HZV: heart minute volume, referred to 20 kg. body weight: 3.61 L/min
  LVEDP: end diastolic pressure in the left ventricle: 5.53 mm.Hg
  PAP: average pressure in the A. pulmonalis: 15.8 ±1.4 mm.Hg
  PRA: pressure in the right atrium: 3.94 mm.Hg
  SV: beat volume, referred to 20 kg. body weight: 38.3 mL
  WAP: pulmonalis resistance, referred to 20 kg. body weight: 0.38 U
  WFem: femoralis resistance, referred to 20 kg. body weight: 0.28 KU
  WTP: total peripheral resistance, referred to 20 kg. body weight: 3.94 U
  dp/dt: rate of pressure increase in the left ventricle: 2081.2 mm.Hg/sec.
